Measurements: the supplement of paper PMC11061612

What was measured:
[1] = system: HuP-T3 (Pancreatic Carcinoma); assay: Bliss excess, mean over the matrix (fraction); higher = more synergy
Method in brief: (§1)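 Cell lines in DMEM/F12 or RPMI with 10% FBS were plated in 1536-well plates, held 24 hours at 37°C, 5% CO2, then given two-drug dose matrices for 72 hours (DMSO typically 0.2%). Viability was read by CellTiter-Glo 2.0 luminescence and scaled as inhibition from 0 (vehicle wells) to 1 (blank wells). Combination Emax is the second-highest inhibition in the matrix; Bliss excess is observed combination effect minus expected EA + EB − EA·EB, EA and EB being single-agent effects.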

[2] = system: NCI-N87 (Gastric Carcinoma); assay: as above
Method in brief: as §1

EW-3 (Ewing's Sarcoma) = assay: as above
Method in brief: as §1

[3] = system: VMRC-LCD (Lung Adenocarcinoma); assay: as above
Method in brief: as §1

[4] = system: NCI-H1573 (Lung Adenocarcinoma); assay: as above
Method in brief: as §1

[5] = system: OCUB-M (Breast Carcinoma); assay: as above
Method in brief: as §1

[6] = system: KLE (Endometrial Carcinoma); assay: combination Emax (second highest fraction inhibited in the dose matrix, 72 h); higher = more inhibition; extreme values may be limits of the assay
Method in brief: as §1

[7] = system: KYSE-50 (Esophageal Squamous Cell Carcinoma); assay: as above
Method in brief: as §1

[8] = system: NCI-H513 (Other Solid Carcinomas); assay: as above
Method in brief: as §1

GI-1 (Glioblastoma) = assay: as above
Method in brief: as §1

EW-13 (Ewing's Sarcoma) = assay: as above
Method in brief: as §1

[9] = system: KINGS-1 (Low Grade Glioma); assay: as above
Method in brief: as §1

[10] = system: EMC-BAC-2 (Non-Small Cell Lung Carcinoma); assay: as above
Method in brief: as §1

[11] = system: EBC-1 (Squamous Cell Lung Carcinoma); assay: as above
Method in brief: as §1

IMR-5 (Neuroblastoma) = assay: as above
Method in brief: as §1

[12] = system: KYSE-150 (Esophageal Squamous Cell Carcinoma); assay: as above
Method in brief: as §1

[13] = system: OCUB-M (Breast Carcinoma); assay: as above
Method in brief: as §1

U-87-MG (Glioblastoma) [14] = assay: Bliss excess, mean over the matrix (fraction); higher = more synergy
Method in brief: as §1

[15] = system: PFSK-1 (Other Solid Carcinomas); assay: combination Emax (second highest fraction inhibited in the dose matrix, 72 h); higher = more inhibition; extreme values may be limits of the assay
Method in brief: as §1

U-87-MG (Glioblastoma) [16] = assay: as above
Method in brief: as §1
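For Bliss excess, mean over the matrix in this document: after 72 h of two-drug dosing.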

Structure (SMILES) | Bliss excess [1] | Bliss excess [2] | Bliss excess (EW-3 (Ewing's Sarcoma)) | Bliss excess [3] | Bliss excess [4] | Bliss excess [5] | combination Emax [6] | combination Emax [7] | combination Emax [8] | combination Emax (GI-1 (Glioblastoma)) | combination Emax (EW-13 (Ewing's Sarcoma)) | combination Emax [9] | combination Emax [10] | combination Emax [11] | combination Emax (IMR-5 (Neuroblastoma)) | combination Emax [12] | combination Emax [13] | Bliss excess (U-87-MG (Glioblastoma) [14]) | combination Emax [15] | combination Emax (U-87-MG (Glioblastoma) [16])
COc1cccc(OCCCN)c1-c1cc(Nc2cnc(C#N)cn2)n[nH]1 [Prexasertib] + C[C@@H]1COCCN1C2=NC(=NC(=C2)C3(CC3)[S@](=N)(=O)C)C4=C5C=CNC5=NC=C4 [AZD6738] (first compound max 1 µM, 7x7, partner max 10 µM) | 0.0032 | -0.0253 | -0.0275 | 0.0201 | 0.0055 | 0.0421 | 0.437 | 0.818 | 0.363 | 0.962 | 0.632 | 0.506 | 0.497 | 0.626 | 1 | 0.621 | 0.585 | – | – | –
COc1cccc(OCCCN)c1-c1cc(Nc2cnc(C#N)cn2)n[nH]1 [Prexasertib] + Cc1cc2ncnn2cc1Nc1ncc2c(n1)n(C1CCOCC1)c(=O)n2C [AZD7648] (first compound max 1 µM, 7x7, partner max 10 µM) | 0.016 | -0.0119 | 0.0201 | -0.0323 | 0.0058 | -0.0611 | 0.471 | 0.818 | 0.36 | 0.987 | 0.512 | 0.607 | 0.538 | 0.588 | 0.98 | 0.513 | 0.595 | – | – | –
COc1cccc(OCCCN)c1-c1cc(Nc2cnc(C#N)cn2)n[nH]1 [Prexasertib] + O=C(c1cc(Cc2n[nH]c(=O)c3ccccc23)ccc1F)N1CCN(C(=O)C2CC2)CC1 [Olaparib] (first compound max 1 µM, 7x7, partner max 10 µM) | -0.0595 | -0.127 | -0.0378 | -0.0955 | 0.0418 | 0.0018 | 0.431 | 0.75 | 0.295 | 0.933 | 0.698 | 0.405 | 0.44 | 0.603 | 0.976 | 0.61 | 0.701 | – | – | –
COc1cc2c(cc1OCCCCCOc1cc3c(cc1OC)C(=O)N1C=C(C)C[C@H]1C=N3)N=C[C@@H]1CC(C)=CN1C2=O [SG3199] + O=C(c1cc(Cc2n[nH]c(=O)c3ccccc23)ccc1F)N1CCN(C(=O)C2CC2)CC1 [Olaparib] (first compound max 0.001 µM, 7x7, partner max 10 µM) | -0.0442 | -0.0477 | -0.0613 | -0.042 | -0.0212 | -0.0502 | 0.184 | 0.0539 | 0.107 | 0.175 | 0.584 | 0.147 | 0.169 | 0.183 | 0.543 | 0.183 | 0.232 | – | – | –
CCc1c2c(nc3ccc(O)cc13)-c1cc3c(c(=O)n1C2)COC(=O)[C@]3(O)CC [SN-38] + CN(C)CCCOc1ccc(-c2ccc3ncc4c(c3c2)n(C2CCOCC2)c(=O)n4C)cn1 [AZD0156] (first compound max 0.3 µM, 7x7, partner max 1 µM) | 0.0438 | -0.0447 | -0.0679 | -0.0338 | -0.0359 | 0.126 | 0.453 | 0.171 | 0.544 | 0.974 | 0.734 | 0.243 | 0.594 | 0.863 | 0.993 | 0.732 | 0.764 | – | – | –
C[C@@H](c1ccc2nccn2c1)n1nnc2ncc(-c3cnn(C)c3)nc21 [Savolitinib] + CN(CC[C@H](CSC1=CC=CC=C1)NC2=C(C=C(C=C2)S(=O)(=O)NC(=O)C3=CC=C(C=C3)N4CCC(CC4)[C@H](C5=CC=CC=C5C6=CC=C(C=C6)Cl)O)S(=O)(=O)C(F)(F)F)CCO [AZD4320] (first compound max 1 µM, 7x7, partner max 1 µM) | -0.0586 | – | – | – | -0.0473 | – | 0.216 | 0.188 | 0.113 | – | 0.639 | – | 0.216 | 1 | 0.481 | 0.219 | – | -0.143 | 0.329 | 0.259
